In a melting point compilation (Tetko et al.; mined from patent text by program, amines drawn as free bases though some values may be those of a salt) one finds melting point data, which are given here for 90 compounds.

Consider `COc1nc2oc(-c3ccccc3)nc2cc1C`, for which the melting point lay within 167 to 168 °C.
As to `COC(=O)[C@@H]1OCN(NS(=O)(=O)c2ccc([N+](=O)[O-])cc2)[C@H]1c1ccccc1`, the melting point lay in the range of 160 to 162 °C.
With `CCOC(=O)c1cnc2cc(F)c(F)cc2c1`, the melting point was 135 °C.
For `CC(C)(CC(C)(c1ccccc1)c1ccc(O)c(C(=O)O)c1)c1ccccc1` (stereo not given), the melting point lay in the range of 153 to 155 °C.
`CCCCCCCCCCCCCCCc1cc2ccc(C(=O)O)cc2[nH]1` came in with a melting point of 140 to 142 °C.
In turn, `CC(C)(C)OC(=O)COc1ccc2c3c(ccc2c1)OC(=O)CC3` gave a melting point of 95 to 96 °C.
The value for `CCOC(=O)c1occ(-c2ccccc2)c(=O)c1Br` was 134 °C.
Take `OCC1NCc2ccsc2-n2cccc21` (stereo not given): the melting point was determined as 166 °C.
`N#Cc1cnc2c(=O)c3ccccc3oc2c1` yielded a melting point of 220 to 226 °C.
The value for `COc1cc(OCc2cn(-c3ccc(C(F)(F)F)cn3)nc2C)ccc1CCC(=O)O` was 158 to 159 °C; that for `Nc1cccc2ccc(OCC3CC3)cc12` was 49 to 50 °C; that for `O=C1CCCc2ncccc2N1` was 156 to 159 °C.
`CCC(C)(Oc1ccc(-c2ccccc2)cc1OC)C(=O)O` (stereo not given) showed a melting point of 50 to 55 °C.
Consider `CCCc1c(OCCCOc2ccc(C(=O)O)cc2Cl)ccc(C(C)=O)c1OC(C)=O`, for which the melting point lay within 146 to 148 °C.
`Cc1ccc(-c2nc(COc3ccc(CCCn4ccnc4)cc3)co2)o1` had a melting point of 109 to 110 °C.
For `Oc1cccc2c1SCCC2` the value was 86 to 88 °C; for `CCN(CC)C(=O)c1cnn(C)c1C(=O)Nc1ccn2nc(N3CCOCC3)nc2c1`, 165 to 167 °C; for `COC1(c2ccc(Sc3ccc(C(=O)c4ccc(C(F)(F)F)cc4)cc3)s2)CCOCC1`, 86 to 87 °C.
Take `COc1cc(C(=O)CS(=O)(=O)N(C)C)c(N)cc1Cl`: the melting point was 59 to 62 °C.
`CC(/C=C/c1sccc1-c1cc2c(cc1C)C(C)(C)CCC2(C)C)=C\C(=O)O` had a melting point of 208 to 209 °C.
Regarding `O=C(OCc1cccnc1)c1ccc(F)cc1`, the melting point is 142 to 143 °C.
The compound `CC(C)(C)c1cc(C(=O)Nc2ccc(C(=O)O)cc2)cc(C(C)(C)C)c1O` yielded a melting point of 160 to 162 °C.
In turn, `Cc1c(-c2cncc(CO)c2)ccc2c(=O)c(C(=O)O)cn(C3CC3)c12` showed a melting point of 221 to 223 °C.
`Cc1cc(C)cc(-c2cccc3ccccc23)c1` displayed a melting point of 68 to 70 °C.
For `N#CNC(=N)CCc1ccccc1Sc1ccccc1CCC(=N)NC#N` the value was 188 to 190 °C.
On to `COc1ccc2c(c1)C=C(/C=C/C=C/C=C/C(=O)O)CO2`, for which the melting point was 250 to 252 °C.
Turning to `Cc1n[nH]c2cc(-c3nn(C(C)c4oc5ccccc5c(=O)c4-c4ccccc4)c4ncnc(N)c34)ccc12` (stereo not given), the melting point was in the range of 249 to 252 °C.
For the compound `N#CCc1cc(CO)cs1`, the melting point lay within 45 to 47 °C.
For `CCCCNc1cccnc1S(=O)(=O)NC(=O)Nc1nc(OC)cc(OC)n1` the value was 118 to 119 °C; for `CCCOc1ncc(NC(C)=O)cc1-c1nc2c(CCC)nn(C)c2c(=O)[nH]1`, 252 to 253 °C.
Compound `Nc1cccc(CC(=O)O)c1` registered a melting point of 116 to 121 °C.
For the compound `Cc1[nH]c(=O)c(C#N)cc1-c1ccc(CC(=O)O)cc1`, the melting point is 280 to 282 °C.
Compound `Cc1c(Sc2ccccc2)c2cccc3c2n1C(CN1CCOCC1)CO3` (single isomer, unassigned; (+)) had a melting point of 126 to 128 °C.
The value for `CNC(=O)c1cc2ccc3c(c2c(-c2ccc4c(c2)OCO4)c1CO)OCO3` was 233 to 235 °C.
For `O=C(Nc1ccc(Cl)cn1)c1cc(Cl)ccc1NCC1CCN(C(=O)N2CCOCC2)CC1` the value was 105 to 107 °C; for `COC(=O)CNCc1ccc(OCc2ccccc2)cc1`, 57 to 58 °C.
On to `COC(=O)C1N=C(c2ccccc2)c2cc(Cl)ccc2NC1=O` (stereo not given), for which the melting point worked out at 222 °C.
As to `CCn1nc2c(N)nc3ccccc3c2c1CO`, the melting point was in the range of 255 to 256 °C.
On to `CCCCCCCc1ccc(-c2ccc(C(=O)O)cc2)cc1`, for which the melting point is 163 °C.
For `Cc1oc(C)c2c(=O)c3c(=O)ccc(=O)c=3c(=O)c12` the value was more than 270 °C.
`O=C(C=Cc1ccc2c(c1)OCO2)C1CC1` registered a melting point of 85 to 87 °C.
Take `Cc1c(C)c2c(c(C)c1NC(=O)CC(C)(C)C)C(O)(C1CCCCC1)C(C)(C)O2` (stereo not given): the melting point was 170 to 171 °C.
Take `C=C(C(=O)OC)[C@@H](O)c1ccccc1`: the melting point was 48 °C.
The value for `NS(=O)(=O)c1ccccc1-c1ccccn1` was 186 to 190 °C; that for `O=C(NC1CCOCC1)c1ccc(-c2cc(-c3c(-c4ccccn4)nc4ccccn34)ccn2)cc1` was 179 °C; that for `C[C@@H](n1cnc2cc(-c3ccc(N)cc3)sc2c1=O)[C@](O)(Cn1cncn1)c1ccc(F)cc1F` was 184 to 186 °C.
`CN1C(=O)c2ccccc2CC1c1ccc(C(C)(C)C)cc1` (stereo not given) returned a melting point of 116 to 117 °C.
Turning to `CN(c1ccc(-c2ccc(C(=N)N)cc2)nn1)[C@H]1CC[C@H](C(=O)O)CC1`, the melting point was in the range of 308 to 310 °C.
Regarding `Clc1ccccc1CN1CC=C(c2cc3ccccc3s2)CC1`, the melting point fell in the range of 105 to 106 °C.
`Cc1ccccc1-n1c(-c2sc(Nc3ccccc3)nc2C)nc2ccccc2c1=O`: the melting point was in the range of 227 to 228 °C.
In turn, `Cn1c(-c2ccc(C(N)=O)cc2)cc2c(N3CCCC3)nc(N3CCCC3)nc21` returned a melting point of 175 to 180 °C.
The compound `CC(CO)(CO)Nc1ccc([N+](=O)[O-])cc1` registered a melting point of 120 °C.
For `COc1ccc(C(=O)c2ccccc2)cc1C(=O)O` the value was 150 °C; for `O=C(O)c1cc2cc(F)c(C(F)(F)F)cc2[nH]1`, 178 to 180 °C; for `COc1ccc(S(=O)(=O)N(COCC[Si](C)(C)C)c2ccccc2I)cc1`, 69 to 70 °C.
For the compound `CC(C)(C)OC(=O)NC(Cc1ccc(OCc2ccccc2)cc1)C(=O)NCC(=O)OCc1ccccc1` (stereo not given), the melting point was 101 to 104 °C.
Compound `Cc1nc(NC(=O)NC(=O)c2c(Cl)cccc2Cl)cnc1-c1ccc(Br)cc1` gave a melting point of 225 to 227 °C.
As to `CCOC(=O)c1cc(OC)c2c(C)c(CCN(CC)CC)c(=O)oc2c1Cl`, the melting point lay in the range of 147 to 148 °C.
Consider `CCCCCCCCC(=O)NCC(=O)O`, for which the melting point fell in the range of 106 to 109 °C.
`O=C(NCCNC1CCC(c2ccc3[nH]c(=O)oc3c2)CC1)c1ccccc1` (stereo not given) yielded a melting point of 167 to 175 °C.
`COc1cc2c(c(C(C)C)c1OC)CC(C)C=C2` (stereo not given) registered a melting point of 56 to 57 °C.
For `O=C(NC=C(c1ccccc1)c1ccccc1)c1sc2ccc(F)cc2c1O`, the melting point was 186 to 189 °C.
With `COC(=O)C1=C(C)NC(C=O)=C(C(=O)OC)C1c1cccc2c(=O)c(C)c(-c3ccccc3)oc12` (stereo not given), the melting point was found to be 216 °C.
`CC(C)CCN1C(=O)C(NC(=O)Oc2cccc(N(C)C)c2)C(=O)N(CC23CC4CC(CC(C4)C2)C3)c2ccccc21` (stereo not given) came in with a melting point of 172 to 173 °C.
The value for `NC(=O)c1cc(-c2cccc3cc(Cc4cccc(C(F)(F)F)c4)sc23)ccc1F` was 169 to 170 °C; that for `CC(C)C1COc2ccccc2O1` (stereo not given) was 124 to 125 °C; that for `CS(=O)(=O)c1ccc(C2=C(c3ccccc3)C(=O)OC2)cc1F` was 161 to 162 °C.
Compound `CC(C)(C)c1cc2c(n1-c1ccc(O)c(C(=O)O)c1)CCc1ccccc1-2` returned a melting point of 258 to 260 °C.
Regarding `CS(=O)(=O)c1ccc(-c2nc(C(F)(F)F)nc(Cl)c2-c2ccc(S(=O)(=O)Cl)cc2)cc1`, the melting point lay within 207 to 210 °C.
Compound `CCc1ccc(Cn2c(C)nc3ccc(C(=O)OC)nc32)c(Cl)c1` registered a melting point of 172 to 173 °C.
The value for `CCOC(=O)C(O)(CC(=O)c1ccc(-c2ccccc2)cc1)C(=O)OCC` was 88 to 88.3 °C; that for `O=C(O)CCc1oc(Sc2ccccn2)nc1-c1ccc(Cl)cc1` was 172 to 173 °C.
The compound `COc1cc2c(Cl)nc3c4ccccc4nc(Cl)c3c2cc1OC` came in with a melting point of 245 to 246 °C.
Compound `CCOC(=O)c1coc2ccc(-c3nnc(C)o3)cc12` came in with a melting point of 135 to 136 °C.
`CC(=CC(=O)NCCCCCC(=O)NO)c1ccccc1` came in with a melting point of 131 to 133 °C.
The value for `COc1ccc2[nH]cc(-c3cc4c(C#N)ccnc4[nH]3)c2c1` was 303 to 304 °C.
With `COc1ccc2oc(C(N)=O)c(OCc3ccccc3)c2c1`, the melting point was in the range of 70 to 72 °C.
Take `C=CCc1c(-c2cc(=O)c3c(O)cc(OCC(=O)OCC)cc3o2)ccc(OC)c1O`: the melting point is 155 °C.
For the compound `Cc1ccc(NC=CS(=O)(=O)F)cc1`, the melting point lay within 61 to 65 °C.
`CCOC(=O)CCC1(NC(=O)c2ccc(Cl)c(Cl)c2)C(=O)N(CCCc2ccccc2)c2ccccc21` (stereo not given) came in with a melting point of 120 to 122 °C.
Compound `CCOC(=O)C1=C(C)Nc2nc(N3CCOCC3)nc(N3CCOCC3)c2C1c1cccc(OC)c1OC` (stereo not given) returned a melting point of 194 °C.
The value for `CN(C)c1cc(CO)ncn1` was 137 to 139 °C.
For `O=C(OCCO)c1nc(Cl)c(Cl)[nH]1`, the melting point was 170 °C.
As for `O=C(N[C@H]1CCC(=O)N2CCC[C@@H](C(=O)O)N2C1=O)OCc1ccccc1`, the melting point lay within 60 to 100 °C.
`COC(=O)Cc1ccc(O)c(F)c1`: the melting point lay in the range of 32 to 34 °C.
For `CCOC(=O)c1cnn2c(-c3ccsc3)ccnc12` the value was 129 to 130 °C.
The compound `Cc1ccc(S(=O)(=O)N2[C@@H](CCc3ncnn3C)CC[C@H]2c2ccc(F)cc2)cc1` (racemic) returned a melting point of 145 °C.
The value for `CCc1cc(-c2cccnc2)nn1-c1ccc(NC(=O)c2cccnc2)cc1` was 188 to 190 °C.
Regarding `Cc1ccc(NC(=O)c2ccc(CN3CCN(C)CC3)c(C(F)(F)F)c2)cc1-c1ccc2ccncc2c1`, the melting point is 153 to 154 °C.
For `CC(=O)c1ccccc1CN1C(=O)C(NC(=O)Nc2cccc(-c3nnn[nH]3)c2)N=C(C2CCCCC2)c2cccc(C)c21` (stereo not given) the value was 199 to 208 °C.
